Consider four compounds from ChEMBL document CHEMBL1201862, “PubChem BioAssay data set” (2004).

The source made the active and inactive calls. A value given as a limit tells only on which side of the number the result lay.

Common to all, as to type: functional
Experiment [1] deals with T1, Sentrin-specific protease 7 (Homo sapiens, UniProt Q9BQF6).
T1 sequence (Q9BQF6 whole entry): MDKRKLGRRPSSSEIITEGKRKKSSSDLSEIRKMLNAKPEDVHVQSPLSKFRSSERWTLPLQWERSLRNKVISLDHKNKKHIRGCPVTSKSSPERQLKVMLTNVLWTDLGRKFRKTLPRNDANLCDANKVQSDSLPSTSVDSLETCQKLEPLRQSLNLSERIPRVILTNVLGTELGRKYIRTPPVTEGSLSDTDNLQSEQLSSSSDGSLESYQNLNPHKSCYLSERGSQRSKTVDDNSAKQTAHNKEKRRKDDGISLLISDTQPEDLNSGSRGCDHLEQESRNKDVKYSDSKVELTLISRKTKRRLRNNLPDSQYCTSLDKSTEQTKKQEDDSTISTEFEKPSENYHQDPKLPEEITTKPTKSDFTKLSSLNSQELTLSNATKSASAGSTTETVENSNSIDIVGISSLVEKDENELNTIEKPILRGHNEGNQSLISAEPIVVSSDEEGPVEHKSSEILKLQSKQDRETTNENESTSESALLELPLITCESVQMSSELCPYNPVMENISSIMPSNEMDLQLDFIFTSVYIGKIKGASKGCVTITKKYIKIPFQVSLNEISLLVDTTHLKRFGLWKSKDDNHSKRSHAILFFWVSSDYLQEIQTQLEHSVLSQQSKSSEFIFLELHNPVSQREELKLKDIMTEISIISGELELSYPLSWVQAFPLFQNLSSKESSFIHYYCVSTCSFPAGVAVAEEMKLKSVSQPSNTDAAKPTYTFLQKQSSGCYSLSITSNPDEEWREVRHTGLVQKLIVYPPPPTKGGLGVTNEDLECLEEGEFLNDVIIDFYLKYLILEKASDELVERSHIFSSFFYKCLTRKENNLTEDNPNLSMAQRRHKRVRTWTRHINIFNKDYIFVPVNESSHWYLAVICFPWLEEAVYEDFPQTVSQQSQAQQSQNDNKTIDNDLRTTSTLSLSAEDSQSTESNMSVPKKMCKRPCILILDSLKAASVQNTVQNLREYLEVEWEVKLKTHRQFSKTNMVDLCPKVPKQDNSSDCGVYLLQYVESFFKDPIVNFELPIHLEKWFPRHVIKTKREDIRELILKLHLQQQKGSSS

The target of experiment [2] is T2, Replicative DNA helicase DnaB (Mycobacterium tuberculosis, UniProt P9WMR3).
T2 sequence (P9WMR3 whole entry): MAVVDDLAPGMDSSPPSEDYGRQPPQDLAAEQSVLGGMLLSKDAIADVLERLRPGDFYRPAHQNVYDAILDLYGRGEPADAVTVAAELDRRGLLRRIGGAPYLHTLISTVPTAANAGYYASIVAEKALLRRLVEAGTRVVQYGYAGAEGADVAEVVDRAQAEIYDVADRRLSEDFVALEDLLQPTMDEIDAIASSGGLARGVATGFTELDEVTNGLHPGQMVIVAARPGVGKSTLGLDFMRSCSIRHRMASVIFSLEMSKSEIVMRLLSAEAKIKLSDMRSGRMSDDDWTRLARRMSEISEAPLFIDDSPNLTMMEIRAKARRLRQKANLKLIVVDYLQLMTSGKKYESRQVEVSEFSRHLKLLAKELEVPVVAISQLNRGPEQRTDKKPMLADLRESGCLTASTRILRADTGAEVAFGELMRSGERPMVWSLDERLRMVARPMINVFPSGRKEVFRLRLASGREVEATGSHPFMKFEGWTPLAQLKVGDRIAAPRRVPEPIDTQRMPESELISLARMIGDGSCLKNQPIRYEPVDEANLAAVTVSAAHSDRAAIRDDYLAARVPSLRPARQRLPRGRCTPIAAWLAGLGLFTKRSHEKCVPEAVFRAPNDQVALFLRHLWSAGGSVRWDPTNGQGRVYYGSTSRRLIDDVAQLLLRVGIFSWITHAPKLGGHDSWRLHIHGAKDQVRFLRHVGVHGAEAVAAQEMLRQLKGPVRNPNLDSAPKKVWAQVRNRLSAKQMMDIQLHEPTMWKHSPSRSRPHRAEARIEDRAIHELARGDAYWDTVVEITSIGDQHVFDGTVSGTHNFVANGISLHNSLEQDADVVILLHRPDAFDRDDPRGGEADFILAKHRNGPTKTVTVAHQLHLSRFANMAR
The experiment in a line: DnaB intein splicing inhibitors, dose response, biochemical, cell-free fluorescence (AID 449749).

In a further experiment the target is T3, Hexokinase HKDC1 (Homo sapiens, UniProt Q2TB90).
T3 sequence (Q2TB90 whole entry): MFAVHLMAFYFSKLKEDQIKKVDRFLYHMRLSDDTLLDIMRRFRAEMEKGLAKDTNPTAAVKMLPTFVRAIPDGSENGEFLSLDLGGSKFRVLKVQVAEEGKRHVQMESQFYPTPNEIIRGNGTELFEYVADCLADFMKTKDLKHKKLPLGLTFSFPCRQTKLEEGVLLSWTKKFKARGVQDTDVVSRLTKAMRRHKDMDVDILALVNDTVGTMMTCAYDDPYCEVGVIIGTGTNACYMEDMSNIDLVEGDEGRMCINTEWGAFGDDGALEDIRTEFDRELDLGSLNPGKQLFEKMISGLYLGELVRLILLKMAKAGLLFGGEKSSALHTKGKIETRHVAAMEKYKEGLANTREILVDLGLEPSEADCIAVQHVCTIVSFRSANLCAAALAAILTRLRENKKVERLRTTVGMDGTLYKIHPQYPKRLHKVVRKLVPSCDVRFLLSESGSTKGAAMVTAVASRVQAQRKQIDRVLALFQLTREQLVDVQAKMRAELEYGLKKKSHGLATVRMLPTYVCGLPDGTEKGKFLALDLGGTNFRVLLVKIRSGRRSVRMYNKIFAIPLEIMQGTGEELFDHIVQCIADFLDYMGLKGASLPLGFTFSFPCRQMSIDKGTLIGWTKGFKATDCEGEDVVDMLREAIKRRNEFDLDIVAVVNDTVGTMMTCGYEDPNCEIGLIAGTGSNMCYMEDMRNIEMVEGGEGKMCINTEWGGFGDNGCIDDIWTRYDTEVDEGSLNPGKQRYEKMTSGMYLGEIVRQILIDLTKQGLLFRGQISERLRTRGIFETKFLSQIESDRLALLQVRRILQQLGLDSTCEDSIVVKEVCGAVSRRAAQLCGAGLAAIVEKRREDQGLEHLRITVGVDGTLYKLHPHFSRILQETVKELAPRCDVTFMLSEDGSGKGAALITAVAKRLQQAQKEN
Description: inhibition of HKDC1 glucose phosphorylation – biochemical, W721R variant, dose response (AID 504729).

For `NC(=O)C1CCN(C2=C(Cl)C(=O)c3ccccc3C2=O)CC1`, the figures for the concentration for half-maximal inhibition (IC50) (in experiment [1]; on Hexokinase HKDC1) were 17.8 µM (active) and 25.9 µM (inactive), respectively. In addition, in experiment [2], the half-maximal activity concentration (AC50) (as a rule, the midpoint of the concentration-response curve, whichever way the signal moves) was 0.617 µM (active).
`O=c1c2ccccc2nc(/C=C/c2cccnc2)n1Cc1ccccc1`: in experiment [2], the AC50 is 9.28 µM (active). In addition, on Hexokinase HKDC1, the IC50 – broadly, the point on the concentration scale where inhibition reaches its midpoint – is 3.2 µM (active).
For the compound `O=C(O)c1ccc(N/N=C/c2ccc(OC(=O)c3ccccc3Cl)cc2)cc1`, the half-inhibitory concentration (IC50) in experiment [1] is 3.74 µM (active).
For the compound `COC(=O)c1ccccc1NC1=C/C(=N\S(=O)(=O)c2ccc(C(=O)O)cc2)c2ccccc2C1=O`, the AC50 in experiment [2] is > 380 µM (inconclusive). In addition, at Hexokinase HKDC1, the IC50 was 3.84 µM (active).
